US12702660B2, “Method for treating cancer with an oral dosage form of an estrogen receptor-alpha inhibitor” (Eisai R&D Management Co., Ltd., priority 2019, dated 2026)
Read-outs that look alike come from different tables or passages of the source.

Assay: Plasma PK of H3B-6545 capsules in fasted patients, phase 1 dose escalation
Format: in vivo, human
Conditions: for Vd / Vd/F / Tmax / AUC(0-inf) / Cmax / half-life / AUC(0-t): female, human, plasma, oral; for Vd / Vd/F / AUC(0-inf) / Cmax / half-life / AUC(0-t): Geometric Mean (GeoCV %); for Vd: read-out: Vss; for Vd/F: read-out: Vz/F
Protocol: Blood samples were collected at the planned time points from each patient and centrifuged. The plasma portion of each sample was then transferred to a K2EDTA tube, which was then shipped to a bioanalytical lab for concentration measurement using LC-MS/MS. The concentration data were then analyzed using Phoenix® WinNonlin software to obtain PK parameters. The obtained PK parameters were further summarized using analytical software.
Blood samples (approximately 5 mL each) were collected from human patients pre-dose and at various hourly time points post-dose. Plasma concentrations of H3B-6545 were determined using a validated high-performance liquid chromatography/tandem mass spectrometry (LC-MS/MS) method. The lower limit of quantification was 0.100 ng/mL.
The PK Analysis Set included subjects who received H3B-6545 drug product in capsules or tablets and had sufficient evaluable plasma concentration data to derive at least 1 primary PK parameter in each treatment. Plasma concentrations of H3B-6545 (as free base) were tabulated and summarized at each nominal time using descriptive statistics (number of subjects, arithmetic mean with standard deviation [SD], coefficient of variation [CV %], geometric mean, median, minimum, and maximum) as appropriate. Individual and mean (±SD) plasma concentration-time profiles were provided for each treatment.
Pharmacokinetic parameters of H3B-6545 were calculated using noncompartmental methods, using an appropriate model for plasma data and extravascular administration. The PK parameters included, but were not limited to, area under the curve to the time of the last quantifiable concentration (AUC0-t), maximum concentration (Cmax), and time at which the maximum concentration occurred (tmax). If data permitted, the area under the plasma concentration-time curve extrapolated to infinity (AUC0-inf), terminal elimination half-life (t1/2), apparent total body clearance (CL/F), total systemic clearance after oral administration at steady state (CLss/F), apparent volume of distribution during the terminal phase (Vz/F), apparent steady-state volume of distribution (Vss), accumulation ratio for Cmax (RCmax) and accumulation ratio of AUC0-24 (RAUC) were also derived.
Methods were used to analyze whether H3B-6545 inactivates both wild-type and mutant ERα by targeting cysteine 530 and enforcing a unique antagonist conformation. Methods: Women with locally advanced or metastatic HR+BC are treated (tx) with H3B-6545 drug product administered once daily orally by capsule over a 28 day cycle after progression on at least one hormonal therapy and at least one additional therapy/regimen. Dose escalation uses a 3+3 design with the option to backfill previously cleared doses and allows for intrapatient dose escalation. This example explored the safety, pharmacokinetics and pharmacodynamics of H3B-6545 in women with HR+BC to identify a recommended subsequent dose for testing.
• H3B-6545 administered once daily orally over a 28 day cycle. • Dose escalation using a standard 3+3 study design using dose cohorts of 100, 200, 300, 450, and 600 mg QD. • Patients allowed to backfill previously cleared doses. • Intra-patient dose escalation allowed after completion of Cycle 3. Results (as of Apr. 20, 2019) Patient Population: • 46 patients were treated with H3B-6545 at doses of 100 to 600 mg QD. • 42 (91.3%) patients received a prior CDK4/6 inhibitor and 32 (69.6%) prior fulvestrant. • 30 (65.2%) patients received ≥3 prior anti-cancer therapy lines in the advanced/metastatic setting.
The clinical trial of Example 3 was continued and PK evaluations (of this Example 4) were made at a later date on the basis of a larger patient population. The summary of Tables 1 in Analysis of Pharmacokinetic (PK) of Capsules in Fasted Patients and 2 show PK parameters and profiles of human patients receiving capsules of H3B-6545 drug product prepared as in Example 1. […]

[1] = 100 mg, Cycle 1 Day 1, 100 mg QD capsules, fasted patients
[2] = 100 mg, Cycle 1 Day 15, 100 mg QD capsules, fasted patients
[3] = 200 mg, Cycle 1 Day 1, 200 mg QD capsules, fasted patients
[4] = 200 mg, Cycle 1 Day 15, 200 mg QD capsules, fasted patients
[5] = 300 mg, Cycle 1 Day 1, 300 mg QD capsules, fasted patients
[6] = 300 mg, Cycle 1 Day 15, 300 mg QD capsules, fasted patients
[7] = 450 mg, Cycle 1 Day 1, 450 mg QD capsules, fasted patients
[8] = 450 mg, Cycle 1 Day 15, 450 mg QD capsules, fasted patients
[9] = 600 mg, Cycle 1 Day 1, 600 mg QD capsules, fasted patients
[10] = 600 mg, Cycle 1 Day 15, 600 mg QD capsules, fasted patients

SMILES: CN(C)C(=O)/C=C/CNCCOc1ccc(/C(=C(/CC(F)(F)F)c2ccccc2)c2ccc3[nH]nc(F)c3c2)cn1 [H3B-6545, (E)-N,N-dimethyl-4-[2-[5-[(Z)-4,4,4-trifluoro-1-(3-fluoro-1H-indazol-5-yl)-2-phenylbut-1-enyl]pyridin-2-yl]oxyethylamino]but-2-enamide]
- Vd [1]: 713 L
- Vd/F [1]: 689 L
- Tmax (100 mg, Cycle 1 Day 1, 100 mg QD capsules, fasted patients, Median (Min, Max)): 3.05 h
- AUC(0-inf) [2]: 2950 ng·h/mL
- Cmax [2]: 287 ng/mL
- half-life [2]: 11.5 h
- AUC(0-t) (100 mg, Cycle 1 Day 15, 100 mg QD capsules, fasted patients, read-out: AUC0-24): 2560 ng·h/mL
- AUC(0-t) (100 mg, Cycle 1 Day 15, 100 mg QD capsules, fasted patients, read-out: AUC0-t): 2590 ng·h/mL
- Vd [2]: 679 L
- Vd/F [2]: 731 L
- Tmax (100 mg, Cycle 1 Day 15, 100 mg QD capsules, fasted patients, Median (Min, Max)): 2 h
- AUC(0-inf) [3]: 5270 ng·h/mL
- Cmax [3]: 473 ng/mL
- half-life [3]: 9.73 h
- AUC(0-t) (200 mg, Cycle 1 Day 1, 200 mg QD capsules, fasted patients, read-out: AUC0-24): 4760 ng·h/mL
- AUC(0-t) (200 mg, Cycle 1 Day 1, 200 mg QD capsules, fasted patients, read-out: AUC0-t): 4810 ng·h/mL
- Vd [3]: 567 L
- Vd/F [3]: 532 L
- Tmax (200 mg, Cycle 1 Day 1, 200 mg QD capsules, fasted patients, Median (Min, Max)): 5 h
- AUC(0-inf) [4]: 7950 ng·h/mL
- Cmax [4]: 605 ng/mL
- half-life [4]: 10.1 h
- AUC(0-t) (200 mg, Cycle 1 Day 15, 200 mg QD capsules, fasted patients, read-out: AUC0-24): 6870 ng·h/mL
- AUC(0-t) (200 mg, Cycle 1 Day 15, 200 mg QD capsules, fasted patients, read-out: AUC0-t): 6910 ng·h/mL
- Vd [4]: 456 L
- Vd/F [4]: 455 L
- Tmax (200 mg, Cycle 1 Day 15, 200 mg QD capsules, fasted patients, Median (Min, Max)): 2.17 h
- AUC(0-inf) [5]: 11100 ng·h/mL
- Cmax [5]: 898 ng/mL
- half-life [5]: 9.58 h
- AUC(0-t) (300 mg, Cycle 1 Day 1, 300 mg QD capsules, fasted patients, read-out: AUC0-24): 9480 ng·h/mL
- AUC(0-t) (300 mg, Cycle 1 Day 1, 300 mg QD capsules, fasted patients, read-out: AUC0-t): 9520 ng·h/mL
- Vd [5]: 416 L
- Vd/F [5]: 374 L
- Tmax (300 mg, Cycle 1 Day 1, 300 mg QD capsules, fasted patients, Median (Min, Max)): 4 h
- AUC(0-inf) [6]: 12700 ng·h/mL
- Cmax [6]: 1200 ng/mL
- half-life [6]: 8.52 h
- AUC(0-t) (300 mg, Cycle 1 Day 15, 300 mg QD capsules, fasted patients, read-out: AUC0-24): 12000 ng·h/mL
- AUC(0-t) (300 mg, Cycle 1 Day 15, 300 mg QD capsules, fasted patients, read-out: AUC0-t): 12100 ng·h/mL
- Vd [6]: 373 L
- Vd/F [6]: 348 L
- Tmax (300 mg, Cycle 1 Day 15, 300 mg QD capsules, fasted patients, Median (Min, Max)): 4 h
- AUC(0-inf) [7]: 23000 ng·h/mL
- Cmax [7]: 1500 ng/mL
- half-life [7]: 11 h
- AUC(0-t) (450 mg, Cycle 1 Day 1, 450 mg QD capsules, fasted patients, read-out: AUC0-24): 16200 ng·h/mL
- AUC(0-t) (450 mg, Cycle 1 Day 1, 450 mg QD capsules, fasted patients, read-out: AUC0-t): 16200 ng·h/mL
- Vd [7]: 343 L
- Vd/F [7]: 311 L
- Tmax (450 mg, Cycle 1 Day 1, 450 mg QD capsules, fasted patients, Median (Min, Max)): 4 h
- AUC(0-inf) [8]: 17400 ng·h/mL
- Cmax [8]: 1420 ng/mL
- half-life [8]: 9.81 h
- AUC(0-t) (450 mg, Cycle 1 Day 15, 450 mg QD capsules, fasted patients, read-out: AUC0-24): 14000 ng·h/mL
- AUC(0-t) (450 mg, Cycle 1 Day 15, 450 mg QD capsules, fasted patients, read-out: AUC0-t): 14100 ng·h/mL
- Vd [8]: 489 L
- Vd/F [8]: 466 L
- Tmax (450 mg, Cycle 1 Day 15, 450 mg QD capsules, fasted patients, Median (Min, Max)): 4 h
- AUC(0-inf) [9]: 32900 ng·h/mL
- Cmax [9]: 2050 ng/mL
- half-life [9]: 13.1 h
- AUC(0-t) (600 mg, Cycle 1 Day 1, 600 mg QD capsules, fasted patients, read-out: AUC0-24): 22400 ng·h/mL
- AUC(0-t) (600 mg, Cycle 1 Day 1, 600 mg QD capsules, fasted patients, read-out: AUC0-t): 22300 ng·h/mL
- Vd [9]: 366 L
- Vd/F [9]: 344 L
- Tmax (600 mg, Cycle 1 Day 1, 600 mg QD capsules, fasted patients, Median (Min, Max)): 4 h
- AUC(0-inf) [10]: 39700 ng·h/mL
- Cmax [10]: 1680 ng/mL
- half-life [10]: 21.8 h
- AUC(0-t) (600 mg, Cycle 1 Day 15, 600 mg QD capsules, fasted patients, read-out: AUC0-24): 18400 ng·h/mL
- AUC(0-t) (600 mg, Cycle 1 Day 15, 600 mg QD capsules, fasted patients, read-out: AUC0-t): 18700 ng·h/mL
- Vd [10]: 1100 L
- Vd/F [10]: 1030 L
- Tmax (600 mg, Cycle 1 Day 15, 600 mg QD capsules, fasted patients, Median (Min, Max)): 4 h
- Tmax (as of 10 Dec. 2018, 100 to 450 mg/day capsules): 2 to 4 h
- Tmax (as of Apr. 20, 2019, 100 to 600 mg QD): 2 to 4 h
- plasma concentration, C1D1 versus C1D15 (once daily dosing): similar
